{"source": "paper PMC3275370", "about": "(The Journal of Cell Biology, 2012)", "key": {"[1]": {"test_system": "NS1", "format": "cell-based, influenza virus"}, "[2]": {"test_system": "A/WSN/1933", "format": "cell-based, influenza virus"}, "[3]": {"test_system": "VSV-GFP (Indiana strain)", "format": "cell-based, vesicular stomatitis virus"}, "[4]": {"test_system": "HBECs", "experiment": "Measurements of cellular UMP, UDP and UTP levels by LC-MS/MS", "format": "cell-based, human", "conditions": "HBECs treated with compound"}, "[5]": {"test_system": "mRNA export block", "format": "cell-based"}, "[6]": {"test_system": "VSV M protein", "format": "cell-based, vesicular stomatitis virus"}, "[7]": {"test_system": "MDCK cells"}}}
{"compound": "O=C(O)c1cc(-c2ccc(Oc3ccccc3)cc2)nc2ccc(F)cc12", "note": "[Compound 1-14, 6-fluoro-2-(4-phenoxyphenyl)quinoline-4-carboxylic acid]", "values": [{"measurement": "reversal of NS1 inhibition of host gene expression (luciferase activity)", "setting": "[1]", "value": "reverted"}, {"measurement": "influenza virus replication", "setting": "[2]", "value": "virus replication was inhibited"}, {"measurement": "VSV replication", "setting": "[3]", "value": "down-regulated"}, {"measurement": "UMP and UDP pools", "setting": "[4]", "value": "down-regulated to a lesser extent"}, {"measurement": "UTP levels", "setting": "[4]", "value": "reduced UTP levels"}, {"measurement": "NS1-mediated mRNA export block in absence of virus", "setting": "[5]", "value": "released"}, {"measurement": "poly(A)+ RNA distribution in influenza virus-infected cells", "setting": "[5]", "value": "normal distribution of mRNA in the nucleus and in the cytoplasm"}, {"measurement": "inhibition of gene expression by M protein", "setting": "[6]", "value": "reverted"}, {"measurement": "cytotoxicity", "setting": "[7]", "value": "not cytotoxic"}]}
{"compound": "Cc1ccc(-c2cc(C(=O)O)c3cc(Cl)ccc3n2)cc1", "note": "[Compound 1-10, 6-chloro-2-p-tolylquinoline-4-carboxylic acid]", "values": [{"measurement": "antiviral effect on influenza virus", "setting": "[2]", "value": "no antiviral effect"}, {"measurement": "antiviral effect on VSV", "setting": "[3]", "value": "no antiviral effect"}]}
{"compound": "CCOc1ccc(-c2cc(C(=O)O)c3cc(Cl)ccc3n2)cc1", "note": "[Compound 1, 6-chloro-2-(4-ethoxyphenyl)quinoline-4-carboxylic acid]", "values": [{"measurement": "reversal of NS1 inhibition of host gene expression (luciferase activity)", "setting": "[1]", "value": "reverted the inhibition of host gene expression by NS1"}, {"measurement": "poly(A)+ RNA distribution in influenza virus-infected cells", "setting": "[5]", "value": "normal distribution of mRNA in the nucleus and in the cytoplasm"}]}
